Measured values reported in patent US20160201132A1, “GENE EXPRESSION BIOMARKERS OF LAQUINIMOD RESPONSIVENESS” (Teva Pharmaceutical Industries Ltd., priority 2013, published 2016).

System: PBMC of RRMS patients
Test: Gene expression microarray analysis (HG-U133A-2) of PBMC from RRMS patients treated with LAQ, ancillary study to ALLEGRO
Format: in vivo, human
Source text: The goal of this ancillary study was to characterize gene expression changes and corresponding biological mechanisms induced in PBMC of RRMS patients by LAQ treatment. According to ALLEGRO clinical trial inclusion criteria, 25 patients were randomly assigned to receive LAQ (n=13, age 38.8±2.3 years, female/male ratio: 8/5) or placebo (n=12, age 37.2±3.4 years, female/male ratio: 8/4).
Peripheral blood samples were obtained from RRMS patients at baseline before start of LAQ treatment or placebo, after 0, 1, 6 and 24 month of treatment (visit 0, 1, 6 and 7 according to ALLEGRO clinical trial protocol correspondently) for gene microarray analysis.
Briefly, 1) Peripheral blood mononuclear cells (PBMC) were obtained from RRMS patients that participated in ALLEGRO and were treated daily with 0.6 mg LAQ or placebo. PBMC were subjected for gene expression analysis (HU-133A-2-Affymatrix arrays) at baseline and at 1 and 6 months of LAQ treatment; 2) Data was analyzed by Partek Genomics Solution software. Most informative genes (MIGs) were defined as those that differentiated between groups with p<0.01. Gene functional annotation, enrichment and pathway analysis were performed by Ingenuity software. For each time point, genes that changed in placebo group were excluded from further analysis; and 3) Verification of LAQ related mechanism was performed by Western blot.
PBMC were extracted from 15 ml peripheral blood, separated by Ficoll-Hypaque gradient. Total RNA was extracted using both Trizol (Invitrogen, USA) and Phase-Lock-Gel columns (Eppendorf, Germany) including a DNase digestion step. RNA integrity was assessed by RNA Experion automated electrophoresis system (Bio-Rad Laboratories, Hercules, Calif.).
Probe synthesis using 3 μg total RNA, hybridization, detection, and scanning was performed according to the standard Affymetrix, Inc. USA protocols; cDNA was synthesized using the Two-Cycle cDNA Synthesis Kit (Affymetrix, Inc., USA), and in-vitro transcription performed with the GeneChip IVT Labeling Kit (Affymetrix, Inc., USA). The biotin-labeled IVT-RNA was hybridized to HG-U133A-2 arrays containing 18,400 gene transcripts, each corresponding to 14,500 well-annotated human genes, washed in a GeneChip Fluidics Station 450 (Hewlett Packard, USA, GeneArray-™ scanner G2500A) and scanned according to the manufacturer's protocol (Affymetrix, Inc., USA).
Data analysis was performed on Partek Genomics Solution software (www.partek.com; Partek Incorporated, St. Louis, Mo.). Expression values were computed from raw CEL files by applying the Robust Multi-Chip Average (RMA) background correction algorithm. RMA correction included: 1) values background correction; 2) quintile normalization; 3) log 2 transformation; and 4) median polish summarization. The ANOVA, Repeated Measures and correlation analysis implicated in Partek software ware applied to evaluate LAQ effects. Most informative genes MIGs were defined as those that differentiated between experimental groups with p<0.01. All p-values were calculated for False Discovery Rate (FDR) multiple test correction at p=0.05.
Additionally, significance of individual genes was tested by parametric T-test and non parametric Mann-Whitney test using Bootstrapping approach based on repeated permutations of the data with 5% FDR for multiple testing.
Gene functional annotation, enrichment, and pathway analyses to identify the leading biological pathways that operated under LAQ treatment were performed by Ingenuity Pathways Analysis software (www.ingenuity.com).
ANOVA analysis was used to compare PBMC gene expression after 1, 6 or 24 month of LAQ treatment with baseline gene expression.
For each time point inventors performed analysis source of variation in dataset. (FIG. 1). Age, gender and batch effects were considered as confounders regarding LAQ or Placebo related changes. For each time point genes associated with Placebo effect were evaluated and excluded from further analysis. […]

[1] = after six months of LAQ treatment
[2] = combined 6 and 24 months vs baseline

CCN(C(=O)c1c(O)c2c(Cl)cccc2n(C)c1=O)c1ccccc1 [LAQ, 5-chloro-N-ethyl-4-hydroxy-1-methyl-2-oxo-N-phenyl-1,2-dihydroquinoline-3-carboxamide]
p, down regulation of pro-inflammatory cytokines IL-9/11/12/20/36, TNFRSF11A/B, IFNA4/8/10/17 and receptors for IL-5/13/20/22 [1]: 3*10^−3 to 9*10^−3 | p, down-regulation of MMP16/24/26/28 and ADAM12/18/22 [1]: 4.95*10^−4 to 1.26*10^−3 | p, suppression of CCL19 and chemokine receptor CXCR1/2 [1]: 6.79*10^−3 | genes (#), Adhesion of cells (after six months of treatment): 119 | genes (#), Caveolar mediated endocytosis (after six months of treatment): 13 | genes (#), Cell signaling: Neurotransmission (after six months of treatment): 56 | genes (#), Cellular movement: Invasion of cells (after six months of treatment): 120 | genes (#), Development: Arachidonic Acid metabolism (after six months of treatment): 18 | genes (#), Development: G protein Coupled Receptor Signaling (after six months of treatment): 73 | genes (#), Hematological system: Coagulation system (after six months of treatment): 7 | genes (#), Hematological system: Intrinsic prothrombin activation pathway (after six months of treatment): 6 | genes (#), Inflammatory response: IL-12 signaling (after six months of treatment): 11 | genes (#), TGFB signaling (after six months of treatment): 14 | genes (#), Leukocyte Extravasation Signaling (after six months of treatment, cellular movement function): 31 | genes (#), Leukocyte Extravasation Signaling (after six months of treatment, inflammatory response function): 29 | # of genes p < 0.01 (LAQ related MIGs, ANOVA) [2]: 2922 | Down regulated genes (LAQ related MIGs) [2]: 2911 | Up-regulated genes (LAQ related MIGs) [2]: 11 | Fold-Change (4.0 vs. 0.0) (gene AAK1): −1.184 | Fold-Change (4.0 vs. 0.0) (gene ACSM5): −1.184 | Fold-Change (4.0 vs. 0.0) (gene ACTA1): −1.184 | Fold-Change (4.0 vs. 0.0) (gene AIF1): −1.179 | Fold-Change (4.0 vs. 0.0) (gene AKAP9): −1.183 | Fold-Change (4.0 vs. 0.0) (gene ALX4, after six months of LAQ): −1.285 | Fold-Change (4.0 vs. 0.0) (gene ASCL1): −1.178 | Fold-Change (4.0 vs. 0.0) (gene ATN1): −1.181 | Fold-Change (4.0 vs. 0.0) (gene BCAN): −1.178 | Fold-Change (4.0 vs. 0.0) (gene BCAP29): −1.18 | Fold-Change (4.0 vs. 0.0) (gene C10orf81): −1.183 | Fold-Change (4.0 vs. 0.0) (gene CA10): −1.181 | Fold-Change (4.0 vs. 0.0) (gene CBS): −1.179 | Fold-Change (4.0 vs. 0.0) (gene CLCN7): −1.177 | Fold-Change (4.0 vs. 0.0) (gene CLEC4M): −1.184 | Fold-Change (4.0 vs. 0.0) (gene CLN8): −1.182 | Fold-Change (4.0 vs. 0.0) (gene CNOT4): −1.181 | Fold-Change (4.0 vs. 0.0) (gene CYP2B6 /// CYP2B7P1, after six months of LAQ): −1.2873 | Fold-Change (4.0 vs. 0.0) (gene CYR61): −1.181 | Fold-Change (4.0 vs. 0.0) (gene DCBLD2): −1.18 | Fold-Change (4.0 vs. 0.0) (gene DDN): −1.178 | Fold-Change (4.0 vs. 0.0) (gene DHX34): −1.184 | Fold-Change (4.0 vs. 0.0) (gene DNAH3): −1.184 | Fold-Change (4.0 vs. 0.0) (gene DPYSL4): −1.18 | Fold-Change (4.0 vs. 0.0) (gene DUOX2): −1.178 | Fold-Change (4.0 vs. 0.0) (gene ESPL1, after six months of LAQ): −1.284 | Fold-Change (4.0 vs. 0.0) (gene EXO1): −1.179 | Fold-Change (4.0 vs. 0.0) (gene FAM188A): −1.178 | Fold-Change (4.0 vs. 0.0) (gene FAM189A1): −1.183 | Fold-Change (4.0 vs. 0.0) (gene GIPR): −1.1819 | Fold-Change (4.0 vs. 0.0) (gene GPR12): −1.178 | Fold-Change (4.0 vs. 0.0) (gene GPRIN2): −1.179 | Fold-Change (4.0 vs. 0.0) (gene GRK5, after six months of LAQ): −1.289 | Fold-Change (4.0 vs. 0.0) (gene GRM1): −1.181 | Fold-Change (4.0 vs. 0.0) (gene GRM8): −1.182 | Fold-Change (4.0 vs. 0.0) (gene HHLA1): −1.181 | Fold-Change (4.0 vs. 0.0) (gene HOXC11): −1.181 | Fold-Change (4.0 vs. 0.0) (gene HS3ST3B1): −1.178 | Fold-Change (4.0 vs. 0.0) (gene ICMT): −1.183 | Fold-Change (4.0 vs. 0.0) (gene IFNA17): −1.18 | Fold-Change (4.0 vs. 0.0) (gene IGHG1): −1.183 | Fold-Change (4.0 vs. 0.0) (gene IHH): −1.179 | Fold-Change (4.0 vs. 0.0) (gene ITGB4): −1.181 | Fold-Change (4.0 vs. 0.0) (gene KCND3): −1.184 | Fold-Change (4.0 vs. 0.0) (gene KRT5, after six months of LAQ): −1.285 | Fold-Change (4.0 vs. 0.0) (gene LAMA3): −1.181 | Fold-Change (4.0 vs. 0.0) (gene LAMC2): −1.18 | Fold-Change (4.0 vs. 0.0) (gene MALL, after six months of LAQ): −1.286 | Fold-Change (4.0 vs. 0.0) (gene MGC2889): −1.18 | Fold-Change (4.0 vs. 0.0) (gene MGC31957): −1.183 | Fold-Change (4.0 vs. 0.0) (gene MORN1): −1.178 | Fold-Change (4.0 vs. 0.0) (gene MYOZ1): −1.183 | Fold-Change (4.0 vs. 0.0) (gene NAGLU): −1.184 | Fold-Change (4.0 vs. 0.0) (gene NECAB2): −1.179 | Fold-Change (4.0 vs. 0.0) (gene NNAT): −1.184 | Fold-Change (4.0 vs. 0.0) (gene NOVA2): −1.18 | Fold-Change (4.0 vs. 0.0) (gene NOX1): −1.179 | Fold-Change (4.0 vs. 0.0) (gene NPR1): −1.1842 | Fold-Change (4.0 vs. 0.0) (gene NR1I2): −1.182 | Fold-Change (4.0 vs. 0.0) (gene NTRK2): −1.183 | Fold-Change (4.0 vs. 0.0) (gene OR1A2): −1.179 | Fold-Change (4.0 vs. 0.0) (gene OR2J2): −1.18 | Fold-Change (4.0 vs. 0.0) (gene OR3A3): −1.182 | Fold-Change (4.0 vs. 0.0) (gene PACRG): −1.182 | Fold-Change (4.0 vs. 0.0) (gene PAH): −1.182 | Fold-Change (4.0 vs. 0.0) (gene PARD3, after six months of LAQ): −1.288 | Fold-Change (4.0 vs. 0.0) (gene PDX1): −1.179 | Fold-Change (4.0 vs. 0.0) (gene PKNOX2): −1.183 | Fold-Change (4.0 vs. 0.0) (gene POLQ): −1.179 | Fold-Change (4.0 vs. 0.0) (gene POPDC3): −1.184 | Fold-Change (4.0 vs. 0.0) (gene PRDM11): −1.183 | Fold-Change (4.0 vs. 0.0) (gene PRKCE): −1.179 | Fold-Change (4.0 vs. 0.0) (gene PRKG1): −1.181 | Fold-Change (4.0 vs. 0.0) (gene PRSS7): −1.18 | Fold-Change (4.0 vs. 0.0) (gene PURA): −1.179 | Fold-Change (4.0 vs. 0.0) (gene RAB11B): −1.18 | Fold-Change (4.0 vs. 0.0) (gene RAD51): −1.18 | Fold-Change (4.0 vs. 0.0) (gene RELN): −1.18 | Fold-Change (4.0 vs. 0.0) (gene RET): −1.183 | Fold-Change (4.0 vs. 0.0) (gene RUNX2): −1.177 | Fold-Change (4.0 vs. 0.0) (gene SERPINB3): −1.178 | Fold-Change (4.0 vs. 0.0) (gene SLC6A11): −1.181 | Fold-Change (4.0 vs. 0.0) (gene SLC25A10): −1.182 | Fold-Change (4.0 vs. 0.0) (gene SLC30A3): −1.184 | Fold-Change (4.0 vs. 0.0) (gene SLC37A4): −1.181 | Fold-Change (4.0 vs. 0.0) (gene SLC39A2): −1.178 | Fold-Change (4.0 vs. 0.0) (gene SLCO5A1): −1.181 | Fold-Change (4.0 vs. 0.0) (gene SOD3): −1.181 | Fold-Change (4.0 vs. 0.0) (gene SOX15, after six months of LAQ): −1.285 | Fold-Change (4.0 vs. 0.0) (gene STRA6): −1.181 | Fold-Change (4.0 vs. 0.0) (gene TACR2): −1.18 | Fold-Change (4.0 vs. 0.0) (gene TRIO): −1.1816 | Fold-Change (4.0 vs. 0.0) (gene TTLL5): −1.182 | Fold-Change (4.0 vs. 0.0) (gene TTYH1): −1.177 | Fold-Change (4.0 vs. 0.0) (gene VPS37B, after six months of LAQ): −1.288 | Fold-Change (4.0 vs. 0.0) (gene VSNL1): −1.18 | Fold-Change (4.0 vs. 0.0) (gene XPNPEP2): −1.183 | Fold-Change (4.0 vs. 0.0) (gene ZNF215): −1.182 | Fold-Change (4.0 vs. 0.0) (gene ZNF280B): −1.177 | Fold-Change (4.0 vs. 0.0) (gene ZNF484): −1.1781 | suppressed molecules associated with different mechanisms of inflammatory response (of 354 genes affected after 1 month of treatment): 50 | down-regulated genes related to cellular movement mechanisms (of 1564 genes that passed FDR, more than 6 months (combined 6 and 24 months)): 305 | share of significantly changed genes that were down regulated (one month of treatment): 98% | genes related to suppression of Cellular movement functions (out of 1562 genes, 6 months of treatment): 260 | share of significantly changed genes that were down regulated (six months of treatment): 99%
